What was measured:
Experiment in all cases: biochemical
Parameters in all cases: Eurofins recombinant human kinase profiling, remaining kinase activity as % of control, 10 uM ATP
Details in all cases: ATP 10 uM; read-out: %Ctrl@10 μM
[1] = target: ATM(h) (Homo sapiens, UniProt Q13315)
From the text: (§1) To rapidly determine the biological target of YL-939, we first tested the activity of YL-939 against a panel of 401 recombinant human protein kinases by using the kinase profiling assay provided by Eurofins, since kinases are often the key components in various signal pathways[35],[36]. […] We then carried out affinity-based proteome profiling assay (ABPP) coupled with bioimaging to identify the biological target of YL-939 (Fig. 4A). To this end, we designed and synthesized a photoaffinity probe, YL-939-1 (Fig. 4A and Supplementary Fig. 5), which is YL-939 attached by a photo-crosslinker (L3) that contains a photo-reactive group diazirine and a clickable alkyne handle.

[2] = target: T1, Aurora-C(h) (Homo sapiens, UniProt Q9UQB9)
T1 construct: gene AURKC
From the text: as §1

[3] = target: CLK3(h) (Homo sapiens, UniProt P49761)
From the text: as §1

[4] = target: T2, ChaK1(h) (Homo sapiens, UniProt Q96QT4)
T2 construct: gene TRPM7
From the text: as §1

[5] = target: EGFR(T790M)(h) (Homo sapiens, UniProt P00533, T790M)
From the text: as §1

[6] = target: EphB2(h) (Homo sapiens, UniProt P29323)
From the text: as §1

[7] = target: GRK5(h) (Homo sapiens, UniProt P34947)
From the text: as §1

[8] = target: T3, HRI(h) (Homo sapiens, UniProt Q9BQI3)
T3 construct: gene EIF2AK1
From the text: as §1

[9] = target: Hck(h) (Homo sapiens, UniProt P08631)
From the text: as §1

[10] = target: T4, IR(h), activated (Homo sapiens, UniProt P06213)
T4 construct: gene INSR
From the text: as §1

[11] = target: MAP4K3(h) (Homo sapiens, UniProt Q8IVH8)
From the text: as §1

[12] = target: T5, MEKK3(h) (Homo sapiens, UniProt Q99759)
T5 construct: gene MAP3K3
From the text: as §1

[13] = target: NEK11(h) (Homo sapiens, UniProt Q8NG66)
From the text: as §1

[14] = target: T6, PKCι(h) (Homo sapiens, UniProt P41743)
T6 construct: gene PRKCI
From the text: as §1

[15] = target: T7, PhKγ1(h) (Homo sapiens, UniProt Q16816)
T7 construct: gene PHKG1
From the text: as §1

[16] = target: T8, Rsk1(h) (Homo sapiens, UniProt Q15418)
T8 construct: gene RPS6KA1
From the text: as §1

[17] = target: STK25(h) (Homo sapiens, UniProt O00506)
From the text: as §1

[18] = target: T9, TAO1(h) (Homo sapiens, UniProt Q7L7X3)
T9 construct: gene TAOK1
From the text: as §1

[19] = target: T10, TRB2(h) (Homo sapiens, UniProt Q92519)
T10 construct: gene TRIB2
From the text: as §1

[20] = target: T11, Tie2 (h) (Homo sapiens, UniProt Q02763)
T11 construct: gene TEK
From the text: as §1

[21] = target: WNK3(h) (Homo sapiens, UniProt Q9BYP7)
From the text: as §1

[22] = target: Wee1(h) (Homo sapiens, UniProt P30291)
From the text: as §1

[23] = target: T12, cKit(D816V)(h) (Homo sapiens, UniProt P10721, D816V)
T12 construct: gene KIT
From the text: as §1

T7 sequence (Q16816 whole entry): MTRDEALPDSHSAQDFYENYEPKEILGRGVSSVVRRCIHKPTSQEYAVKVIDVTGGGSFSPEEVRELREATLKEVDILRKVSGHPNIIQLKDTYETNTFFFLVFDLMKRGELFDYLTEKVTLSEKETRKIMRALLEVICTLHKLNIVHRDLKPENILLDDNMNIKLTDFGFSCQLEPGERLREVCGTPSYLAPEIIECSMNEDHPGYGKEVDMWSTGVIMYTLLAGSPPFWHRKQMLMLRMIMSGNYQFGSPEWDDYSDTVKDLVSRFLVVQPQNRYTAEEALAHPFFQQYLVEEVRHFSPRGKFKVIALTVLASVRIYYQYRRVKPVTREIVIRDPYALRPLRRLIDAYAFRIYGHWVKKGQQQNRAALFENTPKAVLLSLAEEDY
T6 sequence (P41743 whole entry): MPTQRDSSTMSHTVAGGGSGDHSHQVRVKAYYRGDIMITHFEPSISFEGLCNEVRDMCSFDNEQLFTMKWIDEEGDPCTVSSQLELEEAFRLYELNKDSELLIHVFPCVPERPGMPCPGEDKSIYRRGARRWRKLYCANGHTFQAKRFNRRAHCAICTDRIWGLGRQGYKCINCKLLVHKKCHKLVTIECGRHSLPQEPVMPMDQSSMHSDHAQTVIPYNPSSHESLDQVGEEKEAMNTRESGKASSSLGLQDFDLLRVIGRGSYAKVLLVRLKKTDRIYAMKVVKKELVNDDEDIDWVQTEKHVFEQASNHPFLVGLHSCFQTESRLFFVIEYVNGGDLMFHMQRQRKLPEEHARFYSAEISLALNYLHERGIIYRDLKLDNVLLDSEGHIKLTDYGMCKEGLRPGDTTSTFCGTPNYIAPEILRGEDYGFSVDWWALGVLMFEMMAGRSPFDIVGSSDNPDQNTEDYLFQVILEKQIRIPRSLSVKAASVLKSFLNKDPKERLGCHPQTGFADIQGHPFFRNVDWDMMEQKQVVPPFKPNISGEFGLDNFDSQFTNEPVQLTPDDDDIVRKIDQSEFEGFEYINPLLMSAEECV
Chain of WNK3(h) (Q9BYP7 whole entry): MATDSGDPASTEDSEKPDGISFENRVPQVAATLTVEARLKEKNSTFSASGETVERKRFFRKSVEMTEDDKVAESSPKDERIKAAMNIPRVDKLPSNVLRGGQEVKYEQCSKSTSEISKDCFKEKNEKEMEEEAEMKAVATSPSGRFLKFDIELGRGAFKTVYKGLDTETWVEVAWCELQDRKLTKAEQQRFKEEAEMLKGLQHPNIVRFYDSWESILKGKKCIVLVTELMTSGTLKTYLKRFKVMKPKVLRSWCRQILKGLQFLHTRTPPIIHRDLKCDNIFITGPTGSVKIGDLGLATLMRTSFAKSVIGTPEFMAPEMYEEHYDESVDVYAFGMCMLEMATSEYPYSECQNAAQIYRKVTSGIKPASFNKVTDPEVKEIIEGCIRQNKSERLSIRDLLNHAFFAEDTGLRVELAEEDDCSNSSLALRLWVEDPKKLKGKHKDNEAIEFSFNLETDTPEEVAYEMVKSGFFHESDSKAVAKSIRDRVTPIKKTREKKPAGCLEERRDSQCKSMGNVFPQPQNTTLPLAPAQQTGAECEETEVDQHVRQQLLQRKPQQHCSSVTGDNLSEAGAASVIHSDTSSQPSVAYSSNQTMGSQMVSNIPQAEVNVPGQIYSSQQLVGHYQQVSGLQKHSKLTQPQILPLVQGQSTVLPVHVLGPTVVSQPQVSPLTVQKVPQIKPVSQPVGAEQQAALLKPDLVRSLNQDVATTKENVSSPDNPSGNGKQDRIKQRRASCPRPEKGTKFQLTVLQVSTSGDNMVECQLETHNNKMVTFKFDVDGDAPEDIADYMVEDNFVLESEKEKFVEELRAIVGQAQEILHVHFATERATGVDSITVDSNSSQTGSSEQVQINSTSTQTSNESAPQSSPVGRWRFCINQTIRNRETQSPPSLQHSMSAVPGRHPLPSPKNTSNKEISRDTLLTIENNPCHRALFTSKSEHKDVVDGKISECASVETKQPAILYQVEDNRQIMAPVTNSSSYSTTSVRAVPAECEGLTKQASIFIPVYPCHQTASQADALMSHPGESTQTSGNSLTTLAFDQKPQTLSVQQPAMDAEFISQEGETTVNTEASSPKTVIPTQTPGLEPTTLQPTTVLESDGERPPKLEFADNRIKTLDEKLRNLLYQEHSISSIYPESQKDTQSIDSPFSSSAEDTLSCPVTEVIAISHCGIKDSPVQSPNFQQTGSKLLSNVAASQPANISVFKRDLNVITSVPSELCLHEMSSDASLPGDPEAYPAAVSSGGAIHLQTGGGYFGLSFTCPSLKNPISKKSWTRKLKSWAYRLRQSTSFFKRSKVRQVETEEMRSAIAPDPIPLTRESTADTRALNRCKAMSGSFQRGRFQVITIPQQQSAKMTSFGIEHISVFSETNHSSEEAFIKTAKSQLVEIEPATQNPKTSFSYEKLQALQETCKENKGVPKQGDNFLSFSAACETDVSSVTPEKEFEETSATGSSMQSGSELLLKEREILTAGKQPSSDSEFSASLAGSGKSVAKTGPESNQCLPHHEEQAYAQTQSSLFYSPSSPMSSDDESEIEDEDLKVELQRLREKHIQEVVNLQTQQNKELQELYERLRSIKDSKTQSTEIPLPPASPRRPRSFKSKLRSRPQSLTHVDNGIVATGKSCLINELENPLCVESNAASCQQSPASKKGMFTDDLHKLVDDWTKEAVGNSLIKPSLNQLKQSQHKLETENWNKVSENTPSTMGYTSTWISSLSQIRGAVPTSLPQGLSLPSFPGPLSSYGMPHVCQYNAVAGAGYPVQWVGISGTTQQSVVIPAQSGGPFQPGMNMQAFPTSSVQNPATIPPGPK
T8 sequence (Q15418 whole entry): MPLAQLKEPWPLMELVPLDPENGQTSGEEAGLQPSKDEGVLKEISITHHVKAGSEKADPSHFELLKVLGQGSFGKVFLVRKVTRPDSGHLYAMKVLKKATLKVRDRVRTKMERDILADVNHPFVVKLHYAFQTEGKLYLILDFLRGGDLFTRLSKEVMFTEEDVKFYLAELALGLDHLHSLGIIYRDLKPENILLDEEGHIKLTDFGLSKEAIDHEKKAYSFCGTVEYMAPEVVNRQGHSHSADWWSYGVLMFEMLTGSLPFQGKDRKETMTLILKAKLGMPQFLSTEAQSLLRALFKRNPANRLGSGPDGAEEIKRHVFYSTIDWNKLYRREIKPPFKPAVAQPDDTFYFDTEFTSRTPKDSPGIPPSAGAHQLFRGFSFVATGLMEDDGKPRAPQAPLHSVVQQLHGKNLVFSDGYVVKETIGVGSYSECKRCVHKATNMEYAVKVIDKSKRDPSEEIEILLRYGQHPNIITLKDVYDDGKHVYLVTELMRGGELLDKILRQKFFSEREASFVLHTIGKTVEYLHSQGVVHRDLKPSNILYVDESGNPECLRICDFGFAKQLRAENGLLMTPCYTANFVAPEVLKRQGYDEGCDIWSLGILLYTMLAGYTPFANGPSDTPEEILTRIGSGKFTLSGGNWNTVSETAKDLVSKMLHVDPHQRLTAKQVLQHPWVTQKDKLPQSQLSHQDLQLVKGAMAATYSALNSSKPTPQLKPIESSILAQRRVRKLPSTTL
T3 sequence (Q9BQI3 whole entry): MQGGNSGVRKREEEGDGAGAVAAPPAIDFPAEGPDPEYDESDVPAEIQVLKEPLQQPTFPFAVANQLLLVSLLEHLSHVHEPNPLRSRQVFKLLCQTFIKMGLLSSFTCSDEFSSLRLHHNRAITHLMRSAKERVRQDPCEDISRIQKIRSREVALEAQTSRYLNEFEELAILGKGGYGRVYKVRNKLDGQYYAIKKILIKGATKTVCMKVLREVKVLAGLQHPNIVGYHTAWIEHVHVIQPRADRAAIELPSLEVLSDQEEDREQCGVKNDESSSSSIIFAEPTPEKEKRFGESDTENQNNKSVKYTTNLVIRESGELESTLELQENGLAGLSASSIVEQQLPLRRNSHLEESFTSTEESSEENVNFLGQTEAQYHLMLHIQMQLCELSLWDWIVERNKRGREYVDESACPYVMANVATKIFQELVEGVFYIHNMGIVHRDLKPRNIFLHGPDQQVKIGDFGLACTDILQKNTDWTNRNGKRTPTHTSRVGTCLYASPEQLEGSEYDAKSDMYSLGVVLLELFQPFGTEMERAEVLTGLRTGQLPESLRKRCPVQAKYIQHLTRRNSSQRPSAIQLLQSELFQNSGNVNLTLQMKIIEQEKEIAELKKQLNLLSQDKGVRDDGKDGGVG
Chain of CLK3(h) (P49761 whole entry): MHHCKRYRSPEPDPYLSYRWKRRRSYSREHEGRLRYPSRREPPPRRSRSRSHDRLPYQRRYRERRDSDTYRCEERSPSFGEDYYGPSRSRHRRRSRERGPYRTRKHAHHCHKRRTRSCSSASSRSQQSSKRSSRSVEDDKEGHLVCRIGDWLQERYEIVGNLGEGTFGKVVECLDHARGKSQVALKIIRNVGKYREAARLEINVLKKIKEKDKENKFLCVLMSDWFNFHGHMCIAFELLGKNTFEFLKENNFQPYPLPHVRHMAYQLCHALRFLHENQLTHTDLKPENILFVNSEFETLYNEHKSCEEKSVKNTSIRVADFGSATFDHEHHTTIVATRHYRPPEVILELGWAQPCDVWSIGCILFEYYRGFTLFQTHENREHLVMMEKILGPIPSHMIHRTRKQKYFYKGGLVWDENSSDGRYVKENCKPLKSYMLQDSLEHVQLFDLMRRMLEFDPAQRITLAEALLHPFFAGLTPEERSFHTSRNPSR
Chain of STK25(h) (O00506 whole entry): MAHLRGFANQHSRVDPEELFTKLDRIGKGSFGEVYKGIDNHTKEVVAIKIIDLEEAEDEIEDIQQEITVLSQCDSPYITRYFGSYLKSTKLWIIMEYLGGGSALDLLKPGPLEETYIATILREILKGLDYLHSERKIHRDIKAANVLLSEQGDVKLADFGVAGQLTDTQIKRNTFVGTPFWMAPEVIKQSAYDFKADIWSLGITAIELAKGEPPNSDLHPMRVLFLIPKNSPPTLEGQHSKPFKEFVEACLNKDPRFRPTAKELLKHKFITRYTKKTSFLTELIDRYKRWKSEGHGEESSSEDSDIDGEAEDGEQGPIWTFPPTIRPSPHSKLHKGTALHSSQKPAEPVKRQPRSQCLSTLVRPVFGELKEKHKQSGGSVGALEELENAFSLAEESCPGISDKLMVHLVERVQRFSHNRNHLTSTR

Molecule `C1=C(c2nc(-c3cnn(C4CCNCC4)c3)cn3cc(-c4ccccc4)nc23)CCOC1` [YL-939] has a remaining activity at 10 µM [1] of 86%, a remaining activity at 10 µM [2] of 101% and a remaining activity at 10 µM [3] of 96%. The remaining activity at 10 µM [4] was 92%, the remaining activity at 10 µM [5] was 138% and the remaining activity at 10 µM [6] was 81%. The remaining activity at 10 µM [7] was 72%, the remaining activity at 10 µM [8] was 111% and the remaining activity at 10 µM [9] was 98%. The remaining activity at 10 µM [10] was 91%, the remaining activity at 10 µM [11] was 79% and the remaining activity at 10 µM [12] was 108%. For the same molecule, the remaining activity at 10 µM [13] was 86%, the remaining activity at 10 µM [14] was 85% and the remaining activity at 10 µM [15] was 85%. It also gave a remaining activity at 10 µM [16] of 94%, a remaining activity at 10 µM [17] of 82% and a remaining activity at 10 µM [18] of 81%. The remaining activity at 10 µM [19] was 59%, the remaining activity at 10 µM [20] was 81% and the remaining activity at 10 µM [21] was 87%. For the same molecule, the remaining activity at 10 µM [22] was 99% and the remaining activity at 10 µM [23] was 108%.

From paper PMC9719519, “Non-classical ferroptosis inhibition by a small molecule targeting PHB2” (Nature Communications, 2022)
